Measured values taken from patent US7348427B2, “Antipathogenic benzamide compounds” (Genesoft Pharmaceuticals, Inc., priority 2001, dated 2008).

Legend:
[1] = tested on: Bacillus cereus (ATCC 11778); test: MIC, NCCLS broth microdilution assay; assay type: cell-based; details: A = B. cereus ATCC 11778
How it was run: (§1)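 MICs were determined by broth microdilution following NCCLS documents M7-A4, M11-A4 and M27-T. The antifungal assay followed the method in the Manual of Clinical Microbiology (1995).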

[2] = tested on: Enterococcus faecium (ATCC 51559, a vancomycin resistant strain (VRE)); test: MIC, NCCLS broth microdilution assay; assay type: cell-based; details: D = E. faecium ATCC 51559
How it was run: as §1

[3] = tested on: Staphylococcus aureus (ATCC 13709, a methicillin sensitive strain (MSSA)); test: MIC, NCCLS broth microdilution assay; assay type: cell-based; details: E = S. aureus ATCC 13709
How it was run: as §1

[4] = tested on: Staphylococcus aureus (ATCC 27660, a methicillin resistant strain (MRSA)); test: MIC, NCCLS broth microdilution assay; assay type: cell-based; details: F = S. aureus ATCC 27660
How it was run: as §1

[5] = tested on: Staphylococcus epidermidis (ATCC 12228); test: MIC, NCCLS broth microdilution assay; assay type: cell-based; details: G = S. epidermidis ATCC 12228
How it was run: as §1

[6] = tested on: Streptococcus pneumoniae (ATCC 51422, a penicillin resistant strain (PRSP)); test: MIC, NCCLS broth microdilution assay; assay type: cell-based; details: I = S. pneumoniae ATCC 51422
How it was run: as §1

[7] = tested on: Candida albicans (ATCC 38247); test: Antifungal MIC assay; assay type: cell-based; details: B = C. albicans ATCC 38247
How it was run: as §1

[8] = tested on: methicillin resistant Staphylococcus aureus ATCC 33591; test: Murine neutropenic thigh model; assay type: in vivo; details: neutropenic female CF1 mice, 6 hr after treatment
Experimental: A S. aureus ATCC 33591 culture was grown to log phase overnight and diluted in phosphate buffered saline (pH 7.2) to an optical density of about 0.1 at 600 nm, giving an approximate concentration of 10^8 cfu/mL. The suspension was diluted 1:100 in phosphate buffered saline (pH 7.2) for a final concentration of 10^6 cfu/mL.
Outbred female CF1 mice (approx. 20 gram body weight) were rendered neutropenic by treatment with cyclophosphamide (200 mg/kg body weight, intraperitoneal injection) at 2 and 4 days prior to inoculation. Groups of 5 mice were inoculated with 0.05 mL of the bacteria (approx. 10^6 cfu/mL) into the anterior thigh. Each group was treated intravenously two hours post infection with vehicle (phosphate buffered saline) or test compound. The mice were sacrificed at either 6 or 24 hrs after treatment and thighs were collected aseptically. Each thigh was weighed, placed into sterile saline, and homogenized. The tissue homogenates were diluted appropriately for plating on agar plates. Colony counts were recorded (cfu/gram) and compared to control groups.
In vivo efficacy was shown by a decrease in colony count (log cfu/gram of tissue) in the compound-treated animals when compared against the colony count in animals given only the vehicle.

[9] = tested on: E. faecalis ATCC 29212; test: MIC, NCCLS broth microdilution assay; assay type: cell-based, Enterococcus faecalis; details: C = E. faecalis ATCC 29212
How it was run: (§2)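 Broth microdilution per NCCLS M7-A4 (1997) guidelines; MIC recorded as minimal inhibitory concentration.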

[10] = tested on: S. pneumoniae ATCC 49619; test: MIC, NCCLS broth microdilution assay; assay type: cell-based, Streptococcus pneumoniae; details: H = S. pneumoniae ATCC 49619
How it was run: as §2

[11] = target: dsDNA target sequence AATTAATCAT (352 bp fragment, Plasmid B); test: Quantitative DNase I footprint titration, dsDNA binding; details: 352 bp/B, 22° C., pH 7.0, read-out: Dissociation Constant Kd
[12] = 25 mg/kg intravenously two hours post infection
[13] = 50 mg/kg intravenously two hours post infection

Cn1cc(NC(=O)c2cc(NC(=O)c3cc(NC(=O)c4ccc(F)cc4F)c[nH]3)cn2C)cc1C(=O)NCCN1CCCCC1 [Compound A-4]
Minimum Inhibitory Concentration (MIC) [1]: +++ (+++ = MIC ≦ 4)
Minimum Inhibitory Concentration (MIC) [2]: +++ (+++ = MIC ≦ 4)
Minimum Inhibitory Concentration (MIC) [3]: +++ (+++ = MIC ≦ 4)
Minimum Inhibitory Concentration (MIC) [4]: +++ (+++ = MIC ≦ 4)
Minimum Inhibitory Concentration (MIC) [5]: +++ (+++ = MIC ≦ 4)
Minimum Inhibitory Concentration (MIC) [6]: +++ (+++ = MIC ≦ 4)
Minimum Inhibitory Concentration (MIC) [7]: ++ (++ = 4 < MIC < 12)
Colony Count (log cfu/gram) Compound [8, 12]: 5.75 log cfu/gram
Colony Count (log cfu/gram) Compound [8, 13]: 4.99 log cfu/gram
Minimum Inhibitory Concentration (MIC) [9]: + (+ = 12 ≦ MIC ≦ 32)
Minimum Inhibitory Concentration (MIC) [10]: +++ (+++ = MIC ≦ 4)

Cn1cc(NC(=O)c2cc(NC(=O)c3cc(NC(=O)c4ccc(F)cc4F)c[nH]3)cn2C)cc1C(=O)NCCN1CCC(O)CC1 [Compound A-8]
Minimum Inhibitory Concentration (MIC) [1]: +++ (+++ = MIC ≦ 4)
Minimum Inhibitory Concentration (MIC) [2]: +++ (+++ = MIC ≦ 4)
Minimum Inhibitory Concentration (MIC) [3]: +++ (+++ = MIC ≦ 4)
Minimum Inhibitory Concentration (MIC) [4]: +++ (+++ = MIC ≦ 4)
Minimum Inhibitory Concentration (MIC) [5]: +++ (+++ = MIC ≦ 4)
Minimum Inhibitory Concentration (MIC) [6]: +++ (+++ = MIC ≦ 4)
Minimum Inhibitory Concentration (MIC) [7]: + (+ = 12 ≦ MIC ≦ 32)
Colony Count (log cfu/gram) Compound [8, 12]: 5.85 log cfu/gram
Colony Count (log cfu/gram) Compound [8, 13]: 4.45 log cfu/gram
Minimum Inhibitory Concentration (MIC) [9]: +++ (+++ = MIC ≦ 4)
Minimum Inhibitory Concentration (MIC) [10]: +++ (+++ = MIC ≦ 4)

Cn1cc(NC(=O)c2cc(NC(=O)c3cc(NC(=O)c4ccc(F)cc4F)c[nH]3)cn2C)cc1C(=O)NCCN1CCCC1 [Compound A-9]
Minimum Inhibitory Concentration (MIC) [1]: +++ (+++ = MIC ≦ 4)
Minimum Inhibitory Concentration (MIC) [2]: +++ (+++ = MIC ≦ 4)
Minimum Inhibitory Concentration (MIC) [3]: +++ (+++ = MIC ≦ 4)
Minimum Inhibitory Concentration (MIC) [4]: +++ (+++ = MIC ≦ 4)
Minimum Inhibitory Concentration (MIC) [5]: +++ (+++ = MIC ≦ 4)
Minimum Inhibitory Concentration (MIC) [6]: +++ (+++ = MIC ≦ 4)
Minimum Inhibitory Concentration (MIC) [7]: + (+ = 12 ≦ MIC ≦ 32)
Colony Count (log cfu/gram) Compound [8, 12]: 7.11 log cfu/gram
Colony Count (log cfu/gram) Compound [8, 13]: 5.11 log cfu/gram
Minimum Inhibitory Concentration (MIC) [9]: +++ (+++ = MIC ≦ 4)
Minimum Inhibitory Concentration (MIC) [10]: + (+ = 12 ≦ MIC ≦ 32)

Cn1cc(NC(=O)c2cc(NC(=O)c3cc(NC(=O)c4ccc(F)cc4F)cn3C)cn2C)cc1C(=O)NCCN1CCCCC1 [Compound B-6]
Minimum Inhibitory Concentration (MIC) [1]: +++ (+++ = MIC ≦ 4)
Minimum Inhibitory Concentration (MIC) [2]: +++ (+++ = MIC ≦ 4)
Minimum Inhibitory Concentration (MIC) [3]: +++ (+++ = MIC ≦ 4)
Minimum Inhibitory Concentration (MIC) [4]: +++ (+++ = MIC ≦ 4)
Minimum Inhibitory Concentration (MIC) [5]: +++ (+++ = MIC ≦ 4)
Minimum Inhibitory Concentration (MIC) [6]: +++ (+++ = MIC ≦ 4)
Minimum Inhibitory Concentration (MIC) [7]: >32 µg/mL
Colony Count (log cfu/gram) Compound [8, 13]: 6.37 log cfu/gram
Minimum Inhibitory Concentration (MIC) [9]: +++ (+++ = MIC ≦ 4)
Minimum Inhibitory Concentration (MIC) [10]: +++ (+++ = MIC ≦ 4)

Cn1cc(NC(=O)c2cc(NC(=O)c3cc(NC(=O)c4ccc(F)cc4F)cn3C)cn2C)cc1C(=O)NCCN1CCCCCC1 [Compound B-18]
Minimum Inhibitory Concentration (MIC) [1]: +++ (+++ = MIC ≦ 4)
Minimum Inhibitory Concentration (MIC) [2]: +++ (+++ = MIC ≦ 4)
Minimum Inhibitory Concentration (MIC) [3]: +++ (+++ = MIC ≦ 4)
Minimum Inhibitory Concentration (MIC) [4]: +++ (+++ = MIC ≦ 4)
Minimum Inhibitory Concentration (MIC) [5]: +++ (+++ = MIC ≦ 4)
Minimum Inhibitory Concentration (MIC) [6]: +++ (+++ = MIC ≦ 4)
Minimum Inhibitory Concentration (MIC) [7]: ++ (++ = 4 < MIC < 12)
Kd [11]: 2 nM
Minimum Inhibitory Concentration (MIC) [9]: +++ (+++ = MIC ≦ 4)
Minimum Inhibitory Concentration (MIC) [10]: +++ (+++ = MIC ≦ 4)

Cn1cc(NC(=O)c2cc(NC(=O)c3cc(NC(=O)c4ccc(Cl)cc4F)cn3C)cn2C)cc1C(=O)NCCN1CCOCC1 [Compound B-47]
Minimum Inhibitory Concentration (MIC) [1]: +++ (+++ = MIC ≦ 4)
Minimum Inhibitory Concentration (MIC) [2]: +++ (+++ = MIC ≦ 4)
Minimum Inhibitory Concentration (MIC) [4]: +++ (+++ = MIC ≦ 4)
Minimum Inhibitory Concentration (MIC) [5]: +++ (+++ = MIC ≦ 4)
Minimum Inhibitory Concentration (MIC) [6]: +++ (+++ = MIC ≦ 4)
Minimum Inhibitory Concentration (MIC) [7]: >32 µg/mL
Colony Count (log cfu/gram) Compound [8, 13]: 7.53 log cfu/gram
Minimum Inhibitory Concentration (MIC) [9]: +++ (+++ = MIC ≦ 4)
Minimum Inhibitory Concentration (MIC) [10]: +++ (+++ = MIC ≦ 4)

Cn1cc(NC(=O)c2cc(NC(=O)c3cc(NC(=O)c4ccc(Cl)cc4)cn3C)cn2C)cc1C(=O)NCCN1CCOCC1 [Compound B-56]
Minimum Inhibitory Concentration (MIC) [1]: +++ (+++ = MIC ≦ 4)
Minimum Inhibitory Concentration (MIC) [3]: +++ (+++ = MIC ≦ 4)
Minimum Inhibitory Concentration (MIC) [4]: +++ (+++ = MIC ≦ 4)
Minimum Inhibitory Concentration (MIC) [7]: >32 µg/mL
Colony Count (log cfu/gram) Compound [8, 13]: 6.38 log cfu/gram
Minimum Inhibitory Concentration (MIC) [9]: +++ (+++ = MIC ≦ 4)
Minimum Inhibitory Concentration (MIC) [10]: +++ (+++ = MIC ≦ 4)

Cc1cc(NC(=O)c2cc(NC(=O)c3cc(NC(=O)c4ccc(F)cc4F)cn3C)cn2CCCN(C)C)sn1 [Compound D-3]
Minimum Inhibitory Concentration (MIC) [1]: +++ (+++ = MIC ≦ 4)
Minimum Inhibitory Concentration (MIC) [2]: + (+ = 12 ≦ MIC ≦ 32)
Minimum Inhibitory Concentration (MIC) [3]: +++ (+++ = MIC ≦ 4)
Minimum Inhibitory Concentration (MIC) [4]: +++ (+++ = MIC ≦ 4)
Minimum Inhibitory Concentration (MIC) [5]: +++ (+++ = MIC ≦ 4)
Minimum Inhibitory Concentration (MIC) [6]: +++ (+++ = MIC ≦ 4)
Minimum Inhibitory Concentration (MIC) [7]: +++ (+++ = MIC ≦ 4)
Colony Count (log cfu/gram) Compound [8, 13]: 6.28 log cfu/gram
Minimum Inhibitory Concentration (MIC) [9]: +++ (+++ = MIC ≦ 4)
Minimum Inhibitory Concentration (MIC) [10]: +++ (+++ = MIC ≦ 4)

Cc1cc(NC(=O)c2cc(NC(=O)c3cc(NC(=O)c4ccc(Cl)cc4F)c[nH]3)cn2CCCN(C)C)sn1 [Compound D-11]
Minimum Inhibitory Concentration (MIC) [1]: +++ (+++ = MIC ≦ 4)
Minimum Inhibitory Concentration (MIC) [2]: +++ (+++ = MIC ≦ 4)
Minimum Inhibitory Concentration (MIC) [3]: +++ (+++ = MIC ≦ 4)
Minimum Inhibitory Concentration (MIC) [4]: +++ (+++ = MIC ≦ 4)
Minimum Inhibitory Concentration (MIC) [5]: +++ (+++ = MIC ≦ 4)
Minimum Inhibitory Concentration (MIC) [6]: +++ (+++ = MIC ≦ 4)
Minimum Inhibitory Concentration (MIC) [7]: +++ (+++ = MIC ≦ 4)
Colony Count (log cfu/gram) Compound [8, 13]: 6.25 log cfu/gram
Minimum Inhibitory Concentration (MIC) [9]: +++ (+++ = MIC ≦ 4)
Minimum Inhibitory Concentration (MIC) [10]: +++ (+++ = MIC ≦ 4)
